Results: article PMC6156508, “GA-Hecate antiviral properties on HCV whole cycle represent a new antiviral class and open the door for the development of broad spectrum antivirals” (Scientific Reports, 2018)
Where no end group is shown, it is not given here.

Tests used:
[1] = tested on: Huh-7.5 cells harboring SGR-JFH-1 Feo; assay: MTT cytotoxicity in hepatocytes; assay type: cell-based, human; settings: for CC50 (50% cytotoxic concentration): 48 h incubation, SGR-Feo-JFH-1 Huh-7.5 cells, triplicate in three independent assays; for maximum non-toxic (safe) concentration in hepatocytes: arbitrary threshold of 80% cell viability, 48 h
Source text: (§1) Figure 2 Hecate and its derivative-peptide effects on subgenomic HCV genotype 2a replication and hepatotoxicity. (A) Hecate. (B) Lys- Hecate. (C) GA-Hecate. (D) GA2-Hecate. (E) Acetyl-Hecate. (F) Glu-Hecate. Luciferase assays report HCV replication and MTT assays report the viability of Huh-7.5 cells harboring SGR-JFH-1 Feo under peptide treatment. Water was used as a negative control of virus replication inhibition and cell death (Control (−)), and Cyclosporine A was used as a positive control for virus replication inhibition (Control (+)). Red dotted lines represent the arbitrary threshold of 80% cell viability, and blue dotted lines represent the maximum inhibition presented by Hecate at the maximum safe concentration. Bars represent triplicates of the three independent assays. ***P < 0.01 vs control (−).
Peptide cytotoxicity profiles were measured by the MTT [3-(4,5-dimethylthiazol- 2-yl)-2,5-diphenyl tetrazolium bromide] (Sigma–Aldrich) method. Twenty-four hours before treatment, 5 × 10^3 SGR-harboring cell lines (SGR-Feo-JFH-1 or S52/SG-neo) were cultured with supplemented DMEM in a 96-multi-well plate and incubated at 37 °C in a humidified 5% CO2 incubator. On the subsequent day, peptide-containing medium was added at the following final concentrations: 2.5, 5, 10 and 20 μM. The tested peptides were Hecate and its derivatives, which included the following: lysine addition (Lysine-Hecate/Lys-Hecate); one or two molecules of Gallic Acid (GA-Hecate and GA2-Hecate); one acetyl radical (Acetyl-Hecate) or Glutamic acid (Glu-Hecate). After 48 h of incubation, peptide-media was removed, and MTT at a final concentration of 1 mg/mL was added to the wells, incubated for 30 minutes and subsequently replaced by 100 μL of DMSO. Absorbance was measured at 562 nm, using a plate spectrophotometer (FLUOstar Omega/BMG LABTECH, Offenburg, BW, DE). Cell viability was calculated considering water-treated cells (peptides diluent) as a negative control. All experiments were performed in triplicate and in three independent replicates. Further assays were performed considering at least 80% viability of the treated cells.
(§2) GA-Hecate toxicity and viral inhibition profile in 24, 48 and 72h post-treatment in […]
(§3) GA-Hecate toxicity and viral inhibition capacity were evaluated at 24, 48 and 72h post-treatment. Tested concentrations were 1.25; 2.5; 5; 10; 20; and 40 µM. At the end of every incubation, cells were stained using MTT as previously described. Similarly, at every time point, treated cells were lysed using PLB and summited to Luminescence analysis as previously described. […]

[2] = tested on: HCV subgenomic replicon SGR-Feo-JFH-1 (genotype 2a); assay: HCV subgenomic replicon replication, luciferase assay (genotype 2a); assay type: cell-based, hepatitis C virus; settings: for SI (selectivity index), ratio CC50/EC50 / inhibition of HCV replication at the maximum safe concentration: 48 h, genotype 2a replicon; for EC50: Huh-7.5 harbouring SGR-Feo-JFH-1 genotype 2a, 48 h treatment, 2.5-20 μM, luciferase, triplicate in three independent assays, read-out: EC50 (50% effective concentration for HCV); for inhibition of HCV replication at the maximum safe concentration: at each peptide's maximum safe concentration (Hecate 10 μM; Lys-, Glu-, Acetyl-Hecate 5 μM)
Source text: as §1
Cell lines harboring subgenomic or genomic replicons were seeded at 5 × 10^3 cells /well on 96-well plates and the compounds were added 24 h post-seeding, in a concentration range between 2.5–20 μM. After 48 h of treatment, the cells were disrupted with 30 μL of passive lysis buffer (Promega, Madison, WI, USA), and luciferase substrate (Promega, Madison, WI, USA) was automatically added to each sample. Luciferase activity was measured using a luminometer (FLUOstar Omega/BMG LABTECH, Offenburg, BW, DE). The same assays were performed in Huh-7.5 cell lines harboring SGR-JFH1 Feo, S52/SG-neo or FL-J6/JFH-50C19Rluc2AUbi. Cyclosporine A (Sigma-Aldrich) at 1 μM was used as positive control of viral replication inhibition and dH2O as negative control.
as §2, §3

Compound | CC50 (50% cytotoxic concentration) [1] [µM] | maximum non-toxic (safe) concentration in hepatocytes [1] [µM] | SI (selectivity index), ratio CC50/EC50 [2] | EC50 [2] [µM] | inhibition of HCV replication at the maximum safe concentration [2]
CC(C)C[C@H](NC(=O)[C@H](C)NC(=O)[C@H](CCCCN)NC(=O)[C@H](CCCCN)NC(=O)[C@H](CC(C)C)NC(=O)[C@H](C)NC(=O)[C@H](CCCCN)NC(=O)[C@H](CCCCN)NC(=O)[C@H](CC(C)C)NC(=O)[C@H](CCCCN)NC(=O)[C@H](CCCCN)NC(=O)[C@H](CC(C)C)NC(=O)[C@H](C)NC(=O)[C@H](CCCCN)NC(=O)[C@H](CCCCN)NC(=O)[C@H](CC(C)C)NC(=O)[C@H](C)NC(=O)[C@H](CCCCN)NC(=O)[C@H](CC(C)C)NC(=O)[C@H](C)NC(=O)[C@H](CC(C)C)NC(=O)[C@H](C)NC(=O)[C@H](Cc1ccccc1)NC(=O)[C@@H](N)CCCCN)C(N)=O [Lys-Hecate] | 7.97 | 5 | 3.06 | 2.6 | 
Ac-FALALKALKKALKKLKKALKKAL-NH2 [Acetyl-Hecate] | 9.43 | 5 |  | 3.79 | approximately 65%
FALALKALKKALKKLKKALKKAL-NH2 [Hecate] | 12.17 | 10 | 1.42 | 8.57 | 
H-EFALALKALKKALKKLKKALKKAL-NH2 [Glu-Hecate] | 9.12 | 5 | 2.76 | 3.3 | approximately 65%
